This assay concerns asthmatic patients. The experiment in a line: controlled triple-cross-over clinical study, body plethysmographic test of lung function (RAW, FEV1), with pulse and blood pressure. In kind it is in vivo. On the procedure:
In a controlled triple-cross-over study, in a body phlethysmographic test of the lung function, the effectiveness of and tolerance to the individual substances compared to the combination were investigated.
The investigation was carried out on three in-patients with chronic-obstructive airway diseases.
The associated medication with dosing aerosols was reduced to a minimum and noted in a special test report. It was ensured that no aerosol was used at least eight hours prior to each lung function investigation.
The medication sequence was randomised, with a wash-out-phase of two days after each medication.
It was ensured that all the patients had received no xanthine 24 hours before the controlled investigation (lung function test and determination of reversibility).
The lung function (RAW and FEV₁) and the pulse of the patients were measured on the first and third day always at the same time of day, as shown in Fig. 3. On the third day of the investigation, after the final measurement of lung function, the reversibility was again determined, 15 minutes after inhalation of 400 microgram Fenoterol.

With `Cn1c(=O)c2[nH]cnc2n(C)c1=O` [Theophylline, 1,3-dimethylxanthine], the “remaining reversibility (further improvement by inhalation of the dosing aerosol)” value (third day, after inhalation of 400 microgram Fenoterol, 10 mg Nifedipine alone or 300 mg Theophylline alone twice daily) is on record as “still left a considerable further improvement”.
Regarding `CC(Cc1ccc(O)cc1)NCC(O)c1cc(O)cc(O)c1` (stereo not shown) [Fenoterol], where the note is “start of investigation, after inhalation of 400 microgram”, the “rise of FEV₁ mean-value (reversibility)” value was 45%. Also, the FEV₁ mean-value result (start of investigation, after inhalation of 400 microgram, baseline ca. 1,5 l) is “ca. 2.2 l”. Further, the “reduction of airway resistance (reversibility)” value (start of investigation, after inhalation of 400 microgram, referred to the initial value) amounted to 50%.

Source of the values: patent publication EP0266640A2 (Euro-Celtique S.A., priority 1986, dated 1988).
